From PubChem BioAssay AID248 (DTP/NCI, 2004) come the findings set out here.

The structures appear in SMILES notation. Toxic doses and inconclusive results are not listed.

The experiment concerns L1210 leukemia ip in BDF1 mice, survival T/C. Description: NCI In Vivo Anticancer Drug Screen. Data for tumor model L1210 Leukemia (intraperitoneal) in B6D2F1 (BDF1) mice. The note with it: endpoint: mean survival time, higher = longer survival. Summed up: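 In this screen, tumor-bearing mice given compound are compared to those given vehicle, and their survival values are reported as a treated-to-control quotient.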

Setting [1] is: dose: 100.0 mg/kg/injection, schedule: Q01DX001 (ip), vehicle: saline.
Where [2] appears, read: dose: 200.0 mg/kg/injection, schedule: Q01DX001 (ip), vehicle: saline.
Where [3] appears, read: dose: 400.0 mg/kg/injection, schedule: Q01DX001 (ip), vehicle: saline.
Where [4] appears, read: dose: 100.0 mg/kg/injection, schedule: Q04DX003 (ip), vehicle: saline with Tween-80.

For the compound `C#CC1(O)CCC2C3CCc4cc(OC)ccc4C3CCC21C` (centres undefined), the T/C (dose: 10.0 mg/kg/injection, schedule: Q01DX009 (sc), vehicle: saline with Tween-80) was 102 % of control; the T/C (dose: 100.0 mg/kg/injection, schedule: Q04DX003 (sc), vehicle: olive oil, sesame oil, peanut oil) was 102 % of control; the T/C (dose: 200.0 mg/kg/injection, schedule: Q01DX009 (sc), vehicle: saline with Tween-80) was 98 % of control; the T/C (dose: 200.0 mg/kg/injection, schedule: Q04DX003 (sc), vehicle: olive oil, sesame oil, peanut oil) was 102 % of control; the T/C (dose: 400.0 mg/kg/injection, schedule: Q01DX009 (sc), vehicle: saline with Tween-80) is 96 % of control; the T/C (dose: 400.0 mg/kg/injection, schedule: Q04DX003 (sc), vehicle: olive oil, sesame oil, peanut oil) is 100 % of control.

`CCOc1nc(OCC)c2[nH]c(C(=O)O)c(Br)c2n1`: the T/C runs as follows: (dose: 50.0 mg/kg/injection, schedule: Q01DX001 (ip), vehicle: saline) 107 % of control; under setting [1], 100 % of control; under setting [2], 105 % of control; under setting [3], 107 % of control.

`COc1ccc(-n2c(=O)c(N=Nc3ccccc3)c(O)n(-c3ccc(I)cc3)c2=S)cc1`: the T/C is 97 % of control under setting [4]; 100 % of control (dose: 200.0 mg/kg/injection, schedule: Q04DX003 (ip), vehicle: saline with Tween-80); 116 % of control (dose: 400.0 mg/kg/injection, schedule: Q04DX003 (ip), vehicle: saline with Tween-80).

Turning to `C[n+]1cc(N)cc2ccccc21`, the T/C was 105 % of control (dose: 10.0 mg/kg/injection, schedule: Q01DX001 (ip), vehicle: other); 105 % of control (dose: 20.0 mg/kg/injection, schedule: Q01DX001 (ip), vehicle: other); 109 % of control (dose: 40.0 mg/kg/injection, schedule: Q01DX001 (ip), vehicle: other).

In the case of `ClCc1c2ccccc2c(CCl)c2ccccc12`, the T/C was 118 % of control (dose: 0.9 mg/kg/injection, schedule: Q01DX009 (ip), vehicle: saline with Tween-80); 120 % of control (dose: 1.35 mg/kg/injection, schedule: Q01DX009 (ip), vehicle: saline with Tween-80); 111 % of control (dose: 2.05 mg/kg/injection, schedule: Q01DX009 (ip), vehicle: saline with Tween-80); 120 % of control (dose: 2.08 mg/kg/injection, schedule: Q01DX009 (ip), vehicle: saline); 111 % of control (dose: 3.12 mg/kg/injection, schedule: Q01DX009 (ip), vehicle: saline); 110 % of control (dose: 4.0 mg/kg/injection, schedule: Q01DX009 (ip), vehicle: carboxymethylcellulose (CMC)). Further, the T/C is, setting by setting: (dose: 4.68 mg/kg/injection, schedule: Q01DX009 (ip), vehicle: saline with Tween-80) 94 % of control; (dose: 4.68 mg/kg/injection, schedule: Q01DX009 (ip), vehicle: saline) 98 % of control; (dose: 5.0 mg/kg/injection, schedule: Q01DX009 (ip), vehicle: carboxymethylcellulose (CMC)) 121 % of control; (dose: 6.2 mg/kg/injection, schedule: Q01DX015 (ip), vehicle: carboxymethylcellulose (CMC)) 112 % of control; (dose: 7.0 mg/kg/injection, schedule: Q01DX001 (ip), vehicle: saline) 114 % of control; (dose: 9.3 mg/kg/injection, schedule: Q01DX015 (ip), vehicle: carboxymethylcellulose (CMC)) 106 % of control. Further, the T/C reads like this: (dose: 14.0 mg/kg/injection, schedule: Q01DX001 (ip), vehicle: saline) 104 % of control; (dose: 14.0 mg/kg/injection, schedule: Q01DX015 (ip), vehicle: carboxymethylcellulose (CMC)) 104 % of control; (dose: 16.0 mg/kg/injection, schedule: Q01DX009 (ip), vehicle: carboxymethylcellulose (CMC)) 119 % of control; (dose: 20.0 mg/kg/injection, schedule: Q01DX009 (ip), vehicle: carboxymethylcellulose (CMC)) 123 % of control; (dose: 28.0 mg/kg/injection, schedule: Q01DX001 (ip), vehicle: saline) 104 % of control; (dose: 56.0 mg/kg/injection, schedule: Q01DX001 (ip), vehicle: saline) 109 % of control. The T/C reads like this: (dose: 88.8 mg/kg/injection, schedule: Q01DX001 (ip), vehicle: saline) 113 % of control; under setting [1], 118 % of control; (dose: 112.0 mg/kg/injection, schedule: Q01DX001 (ip), vehicle: saline) 109 % of control; under setting [2], 109 % of control; (dose: 300.0 mg/kg/injection, schedule: Q01DX001 (ip), vehicle: saline) 109 % of control; under setting [3], 92 % of control.

Turning to `COC(=O)C(Cc1ccc(N(CCCl)CCCl)cc1)N=NNc1[nH]ncc1C(N)=O` (centres undefined), the T/C (dose: 19.0 mg/kg/injection, schedule: Q01DX001 (ip), vehicle: other) is 106 % of control; the T/C (dose: 38.0 mg/kg/injection, schedule: Q01DX001 (ip), vehicle: other) is 124 % of control; the T/C (dose: 75.0 mg/kg/injection, schedule: Q01DX001 (ip), vehicle: other) was 100 % of control; the T/C (dose: 150.0 mg/kg/injection, schedule: Q01DX001 (ip), vehicle: other) is 155 % of control; the T/C (dose: 300.0 mg/kg/injection, schedule: Q01DX001 (ip), vehicle: other) was 117 % of control.

As for `S=c1nc[nH]c2c1ncn2/N=C/c1ccccc1`, the T/C reads like this: (dose: 100.0 mg/kg/injection, schedule: Q01DX001 (ip), vehicle: other) 96 % of control; (dose: 200.0 mg/kg/injection, schedule: Q01DX001 (ip), vehicle: other) 90 % of control; (dose: 400.0 mg/kg/injection, schedule: Q01DX001 (ip), vehicle: other) 96 % of control.

Consider `COC(=O)c1cccc(O)c1`, for which the T/C by setting is: (dose: 100.0 mg/kg/injection, schedule: Q01DX001 (ip), vehicle: saline with Tween-80) 94 % of control; (dose: 200.0 mg/kg/injection, schedule: Q01DX001 (ip), vehicle: saline with Tween-80) 91 % of control; (dose: 400.0 mg/kg/injection, schedule: Q01DX001 (ip), vehicle: saline with Tween-80) 98 % of control.

In the case of `O=NN1CCN(N=O)CC1`, the T/C (dose: 100.0 mg/kg/injection, schedule: Q01DX001 (ip), vehicle: carboxymethylcellulose (CMC)) was 94 % of control and the T/C under setting [4] is 101 % of control.

Consider `c1ccc([P+](c2ccccc2)(c2ccccc2)C2CN=NC2)cc1`, for which the T/C is 103 % of control (dose: 10.0 mg/kg/injection, schedule: Q01DX001 (ip), vehicle: saline); 108 % of control (dose: 20.0 mg/kg/injection, schedule: Q01DX001 (ip), vehicle: saline); 112 % of control (dose: 40.0 mg/kg/injection, schedule: Q01DX001 (ip), vehicle: saline).

Take `COn1c(/C=N/NC(N)=S)ccc1CN1C(=O)c2ccccc2C1=O`: the T/C is, setting by setting: (dose: 100.0 mg/kg/injection, schedule: Q01DX001 (ip), vehicle: Klucel (hydroxypropylcellulose) (HPC)) 100 % of control; (dose: 200.0 mg/kg/injection, schedule: Q01DX001 (ip), vehicle: Klucel (hydroxypropylcellulose) (HPC)) 97 % of control; (dose: 400.0 mg/kg/injection, schedule: Q01DX001 (ip), vehicle: Klucel (hydroxypropylcellulose) (HPC)) 93 % of control.

Turning to `Cc1cccc(NC(=O)c2ccc(Cl)cc2Cl)n1` (tested in a mixture with another compound), the T/C by setting is: (dose: 100.0 mg/kg/injection, schedule: Q04DX002 (ip), vehicle: Klucel (hydroxypropylcellulose) (HPC)) 103 % of control; (dose: 200.0 mg/kg/injection, schedule: Q04DX002 (ip), vehicle: Klucel (hydroxypropylcellulose) (HPC)) 103 % of control; (dose: 400.0 mg/kg/injection, schedule: Q04DX002 (ip), vehicle: Klucel (hydroxypropylcellulose) (HPC)) 92 % of control.

On to `CCOc1ccc(/C=C(\C#N)c2cccc(Cl)c2)cc1`, for which the T/C was 100 % of control (dose: 100.0 mg/kg/injection, schedule: Q01DX009 (ip), vehicle: Klucel (hydroxypropylcellulose) (HPC)); 93 % of control (dose: 200.0 mg/kg/injection, schedule: Q01DX009 (ip), vehicle: Klucel (hydroxypropylcellulose) (HPC)); 91 % of control (dose: 400.0 mg/kg/injection, schedule: Q01DX009 (ip), vehicle: Klucel (hydroxypropylcellulose) (HPC)).

Take `Oc1cc(O)c(CN2CCCCC2)cc1CN1CCCCC1`: the T/C under setting [1] is 87 % of control.

In the case of `Cc1ccc(CNC(=O)Nc2ccccc2)c(C)c1`, the T/C is 103 % of control (dose: 100.0 mg/kg/injection, schedule: Q01DX009 (ip), vehicle: other); 91 % of control (dose: 200.0 mg/kg/injection, schedule: Q01DX009 (ip), vehicle: other); 101 % of control (dose: 400.0 mg/kg/injection, schedule: Q01DX009 (ip), vehicle: other).
